In patent US7452479B2, “Chemical base for fuel cell engine heat exchange coolant/antifreeze comprising 1,3-propanediol” (Shell Oil Company, priority 2001, dated 2008):
Where two headings read alike, the source gives them in different places.

Experiments:
Physical property data = type: physicochemical
ASTM D1177 freeze point = type: physicochemical
Source text: FIG. 1 illustrates the aqueous solution freeze point characteristics of the 1,3-propanediol and GM 6043 (EG). […] This could be an indication that actual protection against hard, damaging freezing is actually better, approaching the effective protection point of the EG-based product. […] We feel that the antifreeze properties of the chemistry are acceptable. Indeed a 50% solution would provide adequate protection against freezing in most geographies. TC in FIG. 1 is an internal designation for the PDO aqueous solutions at 50, 55, and 60 volume percent PDO.

Row | SMILES | Specific Gravity (Physical property data) | Specific Gravity (Physical property data; 20° C.) | Freeze protection (ASTM D1177 freeze point; 55% in water) | Appearance at the reported freeze point (ASTM D1177 freeze point; aqueous solution)
1 | OCCO [EG, ethylene glycol] | 1.115 | – | – | –
2 | OCCCO [PDO, 1,3-propanediol] | – | 1.0526 | equivalent to 50% EG | soft and slushy
3 | CC(O)CO (centres unmarked) [PG, propylene glycol] | – | 1.032 | – | –
